Measured values: EP4670722A1, “PROPHYLACTIC OR AMELIORATING AGENT FOR CELL AGING” (Kyowa Pharma Chemical Co., Ltd., priority 2023, dated 2024)

Legend:
Type in all cases: cell-based
[1] = test system: Human normal dermal fibroblasts (NB1RGB) with a PDL of 30 or less; experiment: Cell proliferation rate (MTT) of normal dermal fibroblasts; conditions: 50 µg/mL to 200 µg/mL, 2 days, activity increased as content increased, Fig. 2
Experimental: Human normal dermal fibroblasts (NB1RGB) with a PDL of 30 or less and human senescent dermal fibroblasts (NB1RGB) with a PDL of 50 or more were each cultured using DMEM containing 10% FBS. The cultured cells were collected by trypsin treatment. The collected cells were seeded in a 96-well microplate at a concentration of 5.0 x 10^3 cells/well and cultured overnight. Thereafter, the cells were cultured for 2 days at 37°C in a medium for fibroblast proliferation (FBS-free) to which a test sample (sucrose or 2'-fucosyllactose) was added to a concentration of 50 µg/mL, 100 µg/mL,or 200 µg/mL. The medium was replaced with FBS-free DMEM medium, then 10 µL/well of 5 mg/mL 3-[4,5-dimethylthiazol-2-yl]-2,5-diphenyltetrazolium bromide (MTT) was added, and the cells were cultured at 37°C for 3 hours. […] After extraction, the absorbance of formazan (As, 492 nm) was measured with a microplate reader. […]
Human normal dermal fibroblasts with a PDL of 30 or less and human senescent fibroblasts with a PDL of 50 or more were each cultured and the absorbance of formazan was measured in the same manner as in Example 2-1, except that no test sample was added. The obtained absorbance was designated as Ab, and the cell proliferation rate represented by the above formula (1) was determined for each case of PDL of 30 or less and PDL of 50 or more.

[2] = test system: Human normal dermal fibroblasts (NB1RGB) with a PDL of 30 or less; experiment: Cell viability (Cell Counting Kit-8) of tunicamycin-treated dermal fibroblasts; conditions: NB1RGB PDL of 30 or less, tunicamycin 0.3 µg/mL, 50 µg/mL to 200 µg/mL, 24 hours; effect increased as content increased; Fig. 6
Experimental: Human normal dermal fibroblasts (NB1RGB) with a PDL of 30 or less were cultured using DMEM containing 10% FBS. The cultured cells were collected by trypsin treatment. The collected cells were seeded in a 96-well plate, and when they reached 100% confluence, tunicamycin was added at 0.3 µg/mL, and the cells were cultured for 24 hours. A group was also prepared in which FBS-free DMEM medium containing a test sample (2'-fucosyllactose) at 50 µg/mL, 100 µg/mL, or 200 µg/mL was added simultaneously with tunicamycin, and cultured for 24 hours. After completion of culture, the viability of human normal dermal fibroblasts was evaluated using Cell Counting Kit-8 (manufactured by Dojindo Laboratories). The measurement wavelength (As) was set to 450 nm, and the reference wavelength was set to 620 nm.
Human normal dermal fibroblasts with a PDL of 30 or less were cultured and the absorbance at a measurement wavelength of 450 nm was measured in the same manner as in Example 5-1, except that tunicamycin and the test sample were not added. The obtained absorbance was designated as Ab, and the cell viability represented by the above formula (1) was determined.

GLS1 = GLS1 expression analysis (Western blot) in HEK293; conditions: human embryonic kidney cells (HEK293), at least 200 µg/mL or more, 24 hours; effect increased from 200 to 1000 µg/mL; Fig. 12
Experimental: Human embryonic kidney cells (HEK293) were cultured in DMEM containing 10% FBS. The cultured cells were collected by trypsin treatment. The collected cells were seeded in a 6-well plate, and when they reached 100% confluence, DMEM containing 2'-FL as a test sample at 50 µg/mL, 200 µg/mL, or 1000 µg/mL, and lactose at 50 µg/mL or 200 µg/mL was added, and cultured for 24 hours in a 37°C, 5% CO2 incubator. The culture supernatant was removed, the cells were washed twice with phosphate-buffered saline (PBS), and 0.20 mL of RIPA buffer (manufactured by Nacalai Tesque, Inc.) was added to extract total protein. Protein in each protein extract was quantified by the Bradford assay.
Protein extracts were collected in the same manner as in [Example 10-1 A. Human embryonic kidney cells (HEK293)], except that DMEM not containing the test sample was used instead of DMEM containing the test sample, and protein in each protein extract was quantified by the Bradford assay.
Western blot analysis was performed on each protein extract using an anti-GLS1 antibody and an anti-β-actin antibody. […] The intensity of color development was quantified using the open-source software 'ImageJ'. The relative value of the GLS1 amount relative to the β-actin amount when each test sample was added was calculated, with the GLS1 amount relative to the β-actin amount in the control set to 1. […]

Question: Which “proliferation activity of normal fibroblasts (cell proliferation rate)” value [1] does the source give for C[C@@H]1O[C@@H](O[C@H]2[C@H](O[C@H]3[C@H](O)[C@@H](O)C(O)O[C@@H]3CO)O[C@H](CO)[C@H](O)[C@@H]2O)[C@@H](O)[C@H](O)[C@@H]1O (stereo partly drawn) [2'-FL, 2'-fucosyllactose] here?
Answer: The value was “improved the proliferation activity of normal fibroblasts”.

Question: And the “endoplasmic reticulum stress (cell viability)” value [2]?
Answer: The value was “ameliorated endoplasmic reticulum stress”.

Question: What about the GLS1 expression (GLS1) of the same compound?
Answer: Its GLS1 expression is “suppressed GLS1 expression”.
